PubChem BioAssay (NCI)
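Where inhibition never reached the appropriate level, the endpoint shown equals the highest concentration tested. Otherwise, values were interpolated linearly from a five-concentration, 48-hour dose response in 96-well plates. At the GI50, growth is halved. At the TGI there is no net growth.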

How the values were obtained:
Experiment in all cases: NCI-60 cell line screen, 48 h
786-0 renal = test system: 786-0 renal
HT29 colon = test system: HT29 colon
ACHN renal = test system: ACHN renal
M14 melanoma = test system: M14 melanoma
BT-549 breast = test system: BT-549 breast
U251 CNS = test system: U251 CNS
MALME-3M melanoma = test system: MALME-3M melanoma
SN12C renal = test system: SN12C renal
A549 NSCLC = test system: A549 NSCLC
HCT-15 colon = test system: HCT-15 colon

Row | SMILES | TGI (786-0 renal) [µM] | TGI (HT29 colon) [µM] | TGI (ACHN renal) [µM] | TGI (M14 melanoma) [µM] | TGI (BT-549 breast) [µM] | TGI (U251 CNS) [µM] | TGI (MALME-3M melanoma) [µM] | TGI (SN12C renal) [µM] | TGI (A549 NSCLC) [µM] | TGI (HCT-15 colon) [µM] | GI50 (ACHN renal) [µM] | GI50 (BT-549 breast) [µM] | GI50 (MALME-3M melanoma) [µM] | GI50 (SN12C renal) [µM] | GI50 (A549 NSCLC) [µM] | GI50 (HCT-15 colon) [µM] | GI50 (HT29 colon) [µM]
1 | C[N+](C)(C)C(Cc1c[nH]c(=S)[nH]1)C(=O)O (configuration not stated) | > 100 | > 100 | > 100 | > 100 | > 100 | > 100 | > 100 | > 100 | > 100 | > 100 | – | – | – | – | – | – | –
2 | CCCN=C1S/C(=C/c2ccc(OC)c(OC)c2)C(=O)N1c1ccccc1 | 50.2 | > 100 | > 100 | > 100 | > 100 | 38.7 | > 100 | > 100 | > 100 | > 100 | – | – | – | – | – | – | –
3 | O=C1c2ccccc2-c2ccc(N(Cc3ccc(Br)cc3)Cc3ccc(Br)cc3)cc21 | > 100 | > 100 | > 100 | > 100 | > 100 | > 100 | > 100 | > 100 | > 100 | > 100 | – | – | – | – | – | – | –
4 | CC(C)=CCc1c(O)c(CC=C(C)C)c2oc3c(c(=O)c2c1O)C(C=C(C)C)Oc1cc(O)ccc1-3 (configuration not stated) | 19.5 | 23.1 | 15.4 | 21 | 25 | 16.7 | 37 | 18.2 | 20.6 | 19.1 | – | – | – | – | – | – | –
5 | CSc1nc(NC2OC(CO)C(O)C(O)C2O)c(N)c(=O)n1C (configuration not stated) | – | > 100 | – | – | – | > 100 | > 100 | > 100 | > 100 | > 100 | – | – | – | – | – | – | –
6 | CCCCCCCCCCCCCCCc1ccc(C(=O)C[n+]2ccccc2)cc1 | – | – | 2.22 | – | 12.3 | – | 4.95 | 2.13 | 2.03 | 2.56 | 1.01 | 2.88 | 1.75 | 0.756 | 0.731 | 1.03 | –
7 | Brc1ccc(C2(N3CCCCC3)CCCCC2)s1 | > 100 | > 100 | > 100 | 71.4 | > 100 | > 100 | 94 | > 100 | > 100 | – | – | – | – | – | – | – | –
8 | O=C1c2cc([N+](=O)[O-])cnc2S(=O)(=O)N1c1ccc(Oc2ccccc2)cc1 | > 100 | – | > 100 | > 100 | > 100 | > 100 | > 100 | > 100 | > 100 | > 100 | – | – | – | – | – | – | –
9 | CSC(=S)Nc1cc(C)ccn1 | > 100 | > 100 | > 100 | > 100 | – | > 100 | > 100 | > 100 | > 100 | > 100 | – | – | – | – | – | – | –
10 | O=C1C2=Cc3ccccc3CCN2c2ccc([N+](=O)[O-])cc21 | > 100 | > 100 | > 100 | > 100 | – | > 100 | > 100 | > 100 | > 100 | > 100 | – | – | – | – | – | – | –
11 | N=C1SCCS1 | > 100 | > 100 | > 100 | > 100 | – | > 100 | > 100 | > 100 | > 100 | > 100 | – | – | – | – | – | – | –
12 | c1ccc2c(-c3ccnc(-c4c[nH]c5ccccc45)n3)c[nH]c2c1 | 4.6 | 7.33 | > 100 | – | > 100 | 14.2 | – | 19.7 | > 100 | > 100 | – | – | – | – | – | – | –
13 | COC(=O)C1CCCCCCCCCCC12SCCCS2 (configuration not stated) | 28.5 | 91.5 | 40.2 | 31 | – | 32.1 | 37.6 | 31.8 | 36.7 | > 100 | – | – | – | – | – | – | –
14 | c1ccc(NC2(c3nnnn3C3CCCCC3)CCNCC2)cc1 | 28.6 | 35.8 | 52.6 | 35.8 | – | 31.5 | 32.4 | 90.1 | > 100 | 51.6 | – | – | – | – | – | – | –
15 | Nc1nc(Cl)cc(NCC2(CO)CC(O)C2)n1 (configuration not stated) | > 100 | > 100 | > 100 | – | > 100 | > 100 | > 100 | > 100 | > 100 | > 100 | – | – | – | – | – | – | –
16 | CNC1=C(C)C(=O)C2=C(C1=O)C(COC(N)=O)C1(OC)C3NC3CN21 (configuration not stated) | – | 4.01 | – | 2.01 | – | 15 | 3.61 | – | > 100 | 3.52 | – | – | – | – | – | – | –
17 | COc1ccc2c(c1)OCC1Cc3cccc(OC)c3OC21 (configuration not stated) | > 100 | > 100 | – | > 100 | 80 | > 100 | > 100 | > 100 | > 100 | > 100 | – | – | – | – | – | – | –
18 | CN(N=O)C(N)=NC(=O)c1ccccc1 | > 100 | > 100 | > 100 | > 100 | > 100 | > 100 | > 100 | – | > 100 | > 100 | – | – | – | – | – | – | –
19 | Cc1oc2nc(N(C)C)n3c(C)nnc3c2c1C | > 100 | > 100 | > 100 | > 100 | > 100 | > 100 | – | > 100 | > 100 | > 100 | – | – | – | – | – | – | –
20 | COc1cccc(/C=N/[N-]C(N)=O)c1[O-].[OH3+].[Zn+2] | > 100 | > 100 | > 100 | > 100 | – | > 100 | > 100 | > 100 | > 100 | > 100 | – | – | – | – | – | – | –
21 | COc1cc(/C=C2\N=C(c3ccccc3)N(/N=C/c3cc4cc(C)ccc4nc3Cl)C2=O)ccc1O | > 100 | > 100 | > 100 | > 100 | > 100 | > 100 | – | 77.1 | > 100 | > 100 | – | – | – | – | – | – | –
22 | CC[n+]1c(/C=C/c2ccc(N(CCCl)CCCl)cc2)ccc2cc(Br)ccc21 | 10.1 | – | – | 4.19 | – | 4.11 | – | 10.6 | – | – | 1060 | – | 84 | – | 1370 | 2520 | 548
23 | COC(=O)[C@H]1[C@H](OC(=O)[C@@H](OC)c2ccccc2)ON2CC[C@@H](OC(=O)c3ccccc3)[C@H]12 | > 100 | > 100 | 25.6 | > 100 | – | > 100 | > 100 | > 100 | > 100 | > 100 | – | – | – | – | – | – | –
